Data from US12721821B2, “Plant essential oil amino acid composition and preparation method therefor” (COCRYSTAL TECHNOLOGY (JIAXING) CO., LTD, priority 2021, dated 2026).

Experiment: Vapor pressure from thermogravimetric analysis (TGA), kept at 80° C. for 100 minutes
Assay type: physicochemical
Conditions: calculated from weight loss rate
Description: For thermogravimetric analysis (TGA) method, instrument model: Netzsch TG 209F3 thermogravimetric analyzer detection, temperature: 80° C. for 100 minutes, purge gas: 25 mL/min.
Thymol and/or carvacrol and L-proline and/or sarcosine were added to a ball mill according to the compositions shown in Table 2, and vibrated at a vibrating frequency of 30 Hz for a vibrating time of 20 minutes to obtain the compositions. The compositions were subjected to thermogravimetric analysis (TGA), kept at 80° C. for 100 minutes, and the vapor pressure of thymol and/or carvacrol and the compositions thereof were calculated according to the formula:
[formula] • wherein m is the mass of the sample at time t, −dm/dt is the weight loss rate per unit area, p is the saturated vapor pressure, α is the vaporization constant, T is the absolute temperature, R is the gas constant, and M is the molecule mass of the evaporated substance. Under vacuum condition, α=1. α can be considered as a constant when a protective gas is present.

Cc1ccc(C(C)C)cc1O [carvacrol]
vapor pressure (Pa) at 80° C.: 242 Pa

Cc1ccc(C(C)C)c(O)c1 [thymol]
vapor pressure (Pa) at 80° C.: 333 Pa
